The values below come from patent US20240360146A1, “BRUTON'S TYROSINE KINASE AND MUTANT DEGRADER, COMPOSITION AND APPLICATION THEREOF” (HANGZHOU HEALZEN THERAPEUTICS CO., LTD., priority 2021, published 2024).

One data set has as its target T1, BTK (Homo sapiens, UniProt Q06187).
T1 construct: endogenous in cells; host or cells: Mino cells
Description: BTK degradation activity test in Mino cells. The format is cell-based. The following applies: 16 h incubation, Western blot or Elisa. Summed up: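 Mino cells treated with a concentration series of compound for 16 h, then lysed; total protein by BCA. BTK quantified by Western blot or ELISA, degradation rate calculated against blank control, and DC50 fitted from the degradation curve.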

The nature of data set [1]: Stability of compounds in human liver microsome. In kind it is in vitro ADME. Conditions: human liver microsomes, NADPH, 37° C., sampling 0-120 min; read-out: Human liver microsome T1/2. Summed up: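 Compound incubated at 37° C with human liver microsomes (1 mg in 1 mL PBS) plus NADPH. Samples taken at 0, 15, 30, 60 and 120 min, quenched into internal standard solution and analysed by LC/MS; metabolism calculated from peak area.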

The nature of data set [2]: Mouse absorption test (pharmacokinetic properties in mice). The following applies: intragastric, 30 mg/kg; for DNAUC: DNAUC = AUC/Dose; for Cmax: mouse, plasma, po. The format is in vivo. The method, then:
[…] The blood collection time points for intragastric administration were 0.25, 0.5, 1, 2, 4, 6, 8, and 24 h. 0.5 mL of blood was taken with a capillary tube from the orbit, and placed in an EP tube containing EDTA anticoagulant. The EP tube was shaken gently for mixing uniformly, and centrifuged at 3500 rpm and 4° C. for 10 min. The supernatant, i.e., plasma, was taken. Analysis was performed using LC-MS/MS.

In a further data set the target is T2, BTK-C481S (Homo sapiens, UniProt Q06187, C481S).
T2 construct: expressed in transfected cells; host or cells: HEK293 OE BTK-C481S (overexpressing) cell line
T2 sequence (Q06187 whole entry C481S): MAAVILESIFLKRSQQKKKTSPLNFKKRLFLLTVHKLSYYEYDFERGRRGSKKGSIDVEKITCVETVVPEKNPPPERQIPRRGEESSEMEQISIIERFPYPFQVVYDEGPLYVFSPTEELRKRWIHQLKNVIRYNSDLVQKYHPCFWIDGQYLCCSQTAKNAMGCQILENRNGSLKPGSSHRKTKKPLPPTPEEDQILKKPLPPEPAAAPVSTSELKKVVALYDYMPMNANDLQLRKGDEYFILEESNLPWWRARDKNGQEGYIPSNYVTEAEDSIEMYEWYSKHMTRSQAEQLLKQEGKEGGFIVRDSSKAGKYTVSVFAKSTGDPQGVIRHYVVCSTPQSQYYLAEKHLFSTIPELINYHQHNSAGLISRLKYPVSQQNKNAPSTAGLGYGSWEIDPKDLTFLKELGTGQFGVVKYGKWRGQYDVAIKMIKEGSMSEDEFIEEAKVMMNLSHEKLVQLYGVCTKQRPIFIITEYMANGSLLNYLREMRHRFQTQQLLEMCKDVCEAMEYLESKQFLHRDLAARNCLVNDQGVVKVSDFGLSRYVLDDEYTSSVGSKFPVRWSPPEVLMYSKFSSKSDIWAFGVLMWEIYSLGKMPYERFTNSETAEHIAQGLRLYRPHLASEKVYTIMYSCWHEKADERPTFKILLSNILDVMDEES
Description: BTK-C481S degradation activity test in HEK293 OE BTK-C481S cells. In kind it is cell-based. The following applies: 24 h incubation, Western blot or Elisa. The method, then: HEK293 OE BTK-C481S cell line cells were seeded at 500,000 to 1,000,000 cells/well in a 6-well plate. The compounds were diluted to different concentrations and added to the plate, and after 24 h of incubation, the cells were harvested. After lysing the cells, the total protein concentration in each well was determined using the BCA method. The amount of BTK-C481S was determined using Western blot or Elisa method. The amount of undegraded BTKC481S protein at each drug concentration was compared with the amount of BTKC481S protein in the blank control group to calculate the degradation rate. The degradation curve was drawn based on the degradation rate at each concentration, and the half degradation concentration (DC50) was calculated by fitting.
Background: A western blot detects proteins with antibodies after separation by electrophoresis.

Another data set has as its system Mino cells. Description: Inhibitory activity on Mino cell proliferation (MTS). The following applies: Homo sapiens, 168 h incubation. In kind it is cell-based. The method, boiled down: (§1)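 Cells seeded at 10000/well, treated with compounds from 1000 nM (4-fold, 8 points) for 72 h (OCI-LY10) or 168 h (Mino) at 37° C. MTS added for 2 h, stopped with SDS, absorbance read at 490 and 650 nm; IC50 from dose-response fit.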

The subject of another data set is OCI-LY10 cells. Description: Inhibitory activity on OCI-LY10 cell proliferation (MTS). The format is cell-based. Conditions: Homo sapiens, 72 h. Summed up: as §1

T1 sequence (Q06187 whole entry): as the sequence (Q06187 whole entry C481S) above, with S481C counted along it

One may read the DC50 as the concentration giving 50% degradation. The Cmax is the highest concentration seen after dosing. One may read the IC50 as the concentration needed to halve the response being measured. A higher IC50 goes with weaker potency in that assay. Take `CN1CCN([C@@H]2CCCN(c3nnc(C(N)=O)c(Nc4ccc(N5CCN(CC6CCN(c7ccc8c(c7)C(=O)N(C7CCC(=O)NC7=O)C8=O)C6)CC5)c(F)c4)n3)C2)C1=O` (stereo partly drawn) [Compound 130, 5-((4-(4-((1-(2-(2,6-dioxopiperidin-3-yl)-1,3-dioxoisoindolin-5-yl)pyrrolidin-3-yl)methyl)piperazin-1-yl)-3-fluorophenyl)amino)-3-((R)-3-(3-methyl-2-oxoimidazolin-1-yl)piperidin-1-yl)-1,2,4-triazin-6-carboxamide]: the results for the DC50 at BTK and at BTK-C481S were less than 1 nM and less than 10 nM, respectively. The half-life at 0.97 µg/mL in data set [1] turned out to be 32.6 min. Moreover, the DNAUC in data set [2] is listed as 3809 ng/ml*h/mpk. The compound also displayed a peak concentration (Cmax) in data set [2] (class symbols) of more than 6000 ng/mL. The IC50 in the data set on Mino cells was determined as 2.41 nM; with OCI-LY10 cells, 0.28 nM.

`CN1CCN([C@@H]2CCCN(c3nnc(C(N)=O)c(Nc4ccc(N5CCN(CC6CCN(c7ccc(C(=O)N[C@H]8CCC(=O)NC8=O)nc7)C6)CC5)c(F)c4)n3)C2)C1=O` (stereo partly drawn) [Compound 145, 5-((4-(4-((1-(6-(((S)-2,6-dioxopiperidin-3-yl)carbamoyl)pyridin-3-yl)pyrrolidin-3-yl)methyl)piperazin-1-yl)-3-fluorophenyl)amino)-3-((R)-3-(3-methyl-2-oxoimidazolin-1-yl)piperidin-1-yl)-1,2,4-triazin-6-carboxamide] gave a DC50 on BTK of less than 1 nM. Besides, the half-life at 0.97 µg/mL in data set [1] is more than 30 min. In data set [2], this compound returned a DNAUC of 2704 ng/ml*h/mpk and a Cmax of 13800 ng/mL. The same compound gave an IC50 in the data set on Mino cells of 4.15 nM. In the data set on OCI-LY10 cells, this compound came in with an IC50 of 0.56 nM.

Consider `CN1CCN([C@@H]2CCCN(c3nnc(C(N)=O)c(Nc4ccc(N5CCN(CC6CCN(c7ccc(C(=O)NC8CCC(=O)NC8=O)nc7)CC6)CC5)c(F)c4)n3)C2)C1=O` (stereo partly drawn) [Compound 146, 5-((4-(4-((1-(6-((2,6-dioxopiperidin-3-yl)carbamoyl)pyridin-3-yl)piperidin-4-yl)methyl)piperazin-1-yl)-3-fluorophenyl)amino)-3-((R)-3-(3-methyl-2-oxoimidazolin-1-yl)piperidin-1-yl)-1,2,4-triazin-6-carboxamide], for which the values for the DC50 at BTK and at BTK-C481S were less than 1 nM and less than 10 nM, respectively. Also, the half-life at 0.97 µg/mL in data set [1] was more than 30 min. The IC50 in the data set on Mino cells was 1.73 nM; in the data set with OCI-LY10 cells, 1.39 nM.

On to `CN1CCN([C@@H]2CCCN(c3nnc(C(N)=O)c(Nc4ccc(N5CCN(CC6CCN(c7ccc(N8CCC(=O)NC8=O)cc7)CC6)CC5)c(F)c4)n3)C2)C1=O` [Compound 255, (R)-5-((4-(4-((1-(4-(2,4-dioxotetrahydropyrimidin-1(2H)-yl)phenyl)piperidin-4-yl)methyl)piperazin-1-yl)-3-fluorophenyl)amino)-3-(3-(3-methyl-2-oxoimidazolidin-1-yl)piperidin-1-yl)-1,2,4-triazin-6-carboxamide], for which the 50% degradation concentration (DC50) on BTK is less than 1 nM; at BTK-C481S, less than 10 nM. In addition, the half-life at 0.97 µg/mL in data set [1] was more than 30 min. Further, in data set [2], the DNAUC was found to be 1955 ng/ml*h/mpk. In data set [2] (class symbols), the Cmax was more than 6000 ng/mL. Besides, the IC50 in the data set with Mino cells is less than 0.26 nM; in the data set with OCI-LY10 cells, 1.5 nM.

`COc1cc(N2CCC(CN3CCN(c4ccc(Nc5nc(N6CCC[C@@H](N7CCN(C)C7=O)C6)nnc5C(N)=O)cc4F)CC3)CC2)ccc1N1CCC(=O)NC1=O` [Compound 259, (R)-5-((4-(4-((1-(4-(2,4-dioxotetrahydropyrimidin-1(2H)-yl)-3-methoxyphenyl)piperidin-4-yl)methyl)piperazin-1-yl)-3-fluorophenyl)amino)-3-(3-(3-methy 1-2-oxoimidazolidin-1-yl)piperidin-1-yl)-1,2,4-triazin-6-carboxamide]: the results for the DC50 at BTK and on BTK-C481S were less than 1 nM and less than 10 nM, respectively. Moreover, the half-life at 0.97 µg/mL in data set [1] is more than 30 min. The same compound yielded a DNAUC in data set [2] of 2223 ng/ml*h/mpk. The same compound returned a Cmax in data set [2] (class symbols) of more than 6000 ng/mL. The IC50 was 5.58 nM in the data set on Mino cells and 0.61 nM with OCI-LY10 cells.
